# From patent US20150209379A1, “TREATMENT OF PROSTATE CANCER AND HEMATOLOGIC NEOPLASMS” (THOMAS JEFFERSON UNIVERSITY, priority 2012, published 2015)
# Tests used:
# [1] = molecular target: T1, Stat5a (Homo sapiens, UniProt P42229); test: Prolactin-induced Stat5a phosphorylation in CWR22Rv1 prostate cells (immunoprecipitation/Western blot); type: cell-based; conditions: CWR22Rv1, 12, 25, 50 and 100 μM for 2 h, then 10 nM Prl 30 minutes
# T1 sequence (P42229 1-794): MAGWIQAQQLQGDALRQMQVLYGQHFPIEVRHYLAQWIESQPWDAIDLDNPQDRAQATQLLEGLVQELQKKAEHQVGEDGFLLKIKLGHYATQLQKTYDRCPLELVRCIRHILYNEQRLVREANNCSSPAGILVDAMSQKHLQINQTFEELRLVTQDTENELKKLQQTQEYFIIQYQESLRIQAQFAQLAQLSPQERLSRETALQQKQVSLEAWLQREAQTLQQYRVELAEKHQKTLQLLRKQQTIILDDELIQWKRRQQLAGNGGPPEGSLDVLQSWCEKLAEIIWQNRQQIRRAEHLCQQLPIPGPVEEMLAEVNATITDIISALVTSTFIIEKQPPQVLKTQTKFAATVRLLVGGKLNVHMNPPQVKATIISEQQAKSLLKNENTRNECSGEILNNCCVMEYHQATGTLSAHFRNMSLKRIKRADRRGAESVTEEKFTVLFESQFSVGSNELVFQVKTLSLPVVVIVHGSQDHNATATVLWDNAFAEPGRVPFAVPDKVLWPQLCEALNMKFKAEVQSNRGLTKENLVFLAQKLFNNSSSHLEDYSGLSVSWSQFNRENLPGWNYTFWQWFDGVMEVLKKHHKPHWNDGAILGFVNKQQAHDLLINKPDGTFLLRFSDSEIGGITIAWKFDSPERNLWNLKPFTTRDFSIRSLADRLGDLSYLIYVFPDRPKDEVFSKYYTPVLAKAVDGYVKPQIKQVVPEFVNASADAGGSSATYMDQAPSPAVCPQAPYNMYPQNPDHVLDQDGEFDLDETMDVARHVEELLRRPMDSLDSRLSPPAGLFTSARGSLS
# Method: CWR22Rv1 cells were starved for 24 h in serum-free medium, treated with Compound 2 at 12, 25, 50 and 100 μM concentrations for 2 h, followed by stimulation with 10 nM Prl for 30 minutes. Stat5a was immunoprecipitated with anti-Stat5a pAb (4 gg/ml, Millipore, Billerica, Mass.). Immunoprecipitates of CWR22Rv1 cells were blotted with anti-phospho-Stat5ab mAb (1 μg/ml, Advantex BioReagents, Conroe, Tex.) or anti-Stat5a/b mAb (BD Biosciences, San Jose, Calif.). Whole cell lysates were immunoblotted with anti-actin pAb for loading control.
# The protocol in more detail comprised the following. Cell pellets were solubilized in lysis buffer [10 mM Tris-HCl (pH 7.6), 5 mM EDTA, 50 mM sodium chloride, 30 mM sodium pyrophosphate, 50 mM sodium fluoride, 1 mM sodium orthovanadate, 1% Triton X-100, 1 mM phenylmethylsulfonyl fluoride, 5 μg/ml aprotinin, 1 μg/ml pepstatin A, and 2 μg/ml leupeptin], rotated end-over-end at 4° C. for 60 min, and insoluble material was pelleted at 12,000×g for 30 min at 4° C. The protein concentrations of clarified cell lysates were determined by simplified Bradford method (Bio-Rad Laboratories, Hercules, Calif.). Stat5a was immunoprecipitated from whole cell lysates with anti-Stat5a (4 μl/ml; Millipore, Billerica, Mass.) pAb. Antibody was captured by incubation for 60 min with protein A-Sepharose beads (Amersham Pharmacia Biotech, Piscataway, N.J.). […]
# [2] = test system: KCL22 human chronic myeloid leukemia cells; test: Cell viability, MTS assay, KCL22 (imatinib-sensitive) chronic myeloid leukemia cells; type: cell-based; conditions: KCL22 (KCL22S), 72 h, 3.1, 6.3, 12.5, 25 and 50 μM, vs control compound C5
# Method: (§1) Exponentially growing KCL22 human chronic myeloid leukemia cells were treated with Compound 1, Compound 2 or the control compound C5 for 72 h at 3.1, 6.3. 12.5, 25 and 50 μM concentrations. The cell viability was assessed by MTS (3-(4,5-dimethylthiazolyl-2)-2,5-diphenyl-tetrazolium bromide) metabolic activity assay (CellTiter 96® AQueous Assay kit).
# as §1, with “CWR22Rv1 prostate cancer cells, K562 leukemia cells and imatinib-sensitive KCL22S and imatinib-resistant KCL22R” for “KCL22 human”, “NBPP” for “Compound 1, Compound 2”
# [3] = test system: Stat5a/b; test: Constitutive Stat5a/b phosphorylation in K562 cells (Western blot); type: cell-based, human
# Method: Exponentially growing K562 cells were treated with 5 μM Compound 1, Compound 2 or control for 3 h after which the cells were harvested. Cell pellets were solubilized in lysis buffer [10 mM Tris-HCl (pH 7.6), 5 mM EDTA, 50 mM sodium chloride, 30 mM sodium pyrophosphate, 50 mM sodium fluoride, 1 mM sodium orthovanadate, 1% Triton X-100, 1 mM phenylmethylsulfonyl fluoride, 5 μg/mlaprotinin, 1 μg/ml pepstatin A, and 2 μg/ml leupeptin], rotated end-over-end at 4° C. for 60 min, and insoluble material was pelleted at 12,000×g for 30 min at 4° C. The protein concentrations of clarified cell lysates were determined by simplified Bradford method (Bio-Rad Laboratories, Hercules, Calif.). Western blotting of the lysates was carried out using, as primary antibodies, the following antibodies at the following concentrations: anti-phosphotyrosine-Stat5a/b (Y694/Y699) mAb (1 μg/ml, Advantex BioReagents, Conroe, Tex.) or anti-Stat5ab mAb (1:250; BD Biosciences, San Jose, Calif.), anti-human Abl mAb (Calbiochem).
# Exponentially growing K562 cells were treated with NBPP for 3 h or 6 h after which the cells were harvested. Exponentially growing K562 cells or imatinib-resistant K562 cells were treated with NBPP for 6 h or 16 h after which the cells were harvested. Cell pellets were solubilized in lysis buffer [10 mM Tris-HCl (pH 7.6), 5 mM EDTA, 50 mM sodium chloride, 30 mM sodium pyrophosphate, 50 mM sodium fluoride, 1 mM sodium orthovanadate, 1% Triton X-100, 1 mM phenylmethylsulfonyl fluoride, 5 μg/ml aprotinin, 1 μg/ml pepstatin A, and 2 μg/ml leupeptin], rotated end-over-end at 4° C. for 60 min, and insoluble material was pelleted at 12,000×g for 30 min at 4° C. The protein concentrations of clarified cell lysates were determined by simplified Bradford method (Bio-Rad Laboratories, Hercules, Calif.). […]
effect on Stat5a phosphorylation [1],Structure (SMILES),number of viable cells [2],"effect on phosphorylation of Stat5 ([3]; K562, 5 μM, 3 h)","effect on phosphorylation of Stat5 ([3]; K562, indicated concentrations, 3 or 6 hours)"
inhibits Stat5a phosphorylation,"OC[C@H]1O[C@@H](n2cnc3c(NNc4ccccc4)ncnc32)[C@H](O)[C@@H]1O [Compound 2, (2R,3S,4R,5R)-2-(hydroxymethyl)-5-(6-(2-phenylhydrazinyl)-9H-purin-9-yl)tetrahydrofuran-3,4-diol]",decreased the number of viable leukemic cancer cells compared to the control compound,block phosphorylation of Stat5,–
–,"OC[C@H]1O[C@@H](n2cnc3c(N4CCc5ccccc5C4)ncnc32)[C@H](O)[C@@H]1O [Compound 1, (2R,3R,4S,5R)-2-(6-(3,4-Dihydroisoquinolin-2(1H)-yl)-9H-purin-9-yl)-5-(hydroxymethyl)tetrahydrofuran-3,4-diol]",decreased the number of viable leukemic cancer cells compared to the control compound,block phosphorylation of Stat5,–
–,"OC[C@H]1O[C@@H](n2ccc3c(NCc4ccccc4)ncnc32)[C@H](O)[C@@H]1O [NBPP, N-(phenylmethyl)-7-β-D-ribofuranosyl-7H-pyrrolo[2,3-d]pyrimidin-4-amine]",decreased the number of viable KCL22S cells,–,inhibited phosphorylation of Stat5
